# Read-outs that look alike come from different tables or passages of the source.
# Molecular target: LRRK2 (leucine-rich repeat kinase 2) (Homo sapiens (Human), UniProt Q5S007)
# Assay: Inhibitory effect on LRRK2 in vitro (LANCE kinase assay)
# Type: biochemical
# Experimental: The inhibitory effect of Compounds 1 to 62 on LRRK2 (leucine-rich repeat kinase 2) in vitro was measured. In the analysis of the results, IC50 values were calculated for a quantitative comparison of the in vitro activity.
# After the compound was dissolved in 100% DMSO at 10 mM, it was serially diluted to the range of 1 μM to 10 μM using biochemical LRRK2 assay buffer (50 mM HEPES (4-(2-hydroxyethyl)-1-piperazineethanesulfonic acid) pH 7.5, 10 mM MgCl2, 1 mM EGTA (1,2-bis(o-aminophenoxy)ethane-N,N,N′,N′-tetraacetic acid), 2 mM DTT (dithiothreitol), and 0.01% TWEEN-20 (Aldrich)). Purified LRRK2 (CARNA BIOSCIENCES) was added to a black U-bottom 96-well microtiter plate containing 6 μl of the serially diluted compound, followed by incubation at room temperature for 30 minutes. For the kinase reaction, ATP and a substrate solution specific urea-polypeptide (ULIGHT™-poly TK, PerkinElimer) were added. The reaction was carried out at room temperature for 1 hour, and it was detected with an detection solution (brand name: LANCE™) containing EDTA. A LANCE detection solution containing europium-labeled antibody ([…] PT66) was added, followed by incubation at room temperature for 50 minutes, to terminate the kinase experiment. The phosphorylated substrate was detected by 665 nm emission measurement. IC50 values were calculated by a non-linear regression analysis using a Prism program (PRISM™ software) with reference to the absence of a kinase inhibitor.
# As a comparative assay, a compound LRR2-IN-1, that known to be a reference compound for LRRK2 inhibitor, have also tested an inhibitory activity.
# [1] = Table 1, class symbols, read-out: LRRK2 inhibition rate (IC50)
# [2] = purified LRRK2, Table 6, read-out: IC50
# Sequence of LRRK2 (leucine-rich repeat kinase 2) (Q5S007 whole entry): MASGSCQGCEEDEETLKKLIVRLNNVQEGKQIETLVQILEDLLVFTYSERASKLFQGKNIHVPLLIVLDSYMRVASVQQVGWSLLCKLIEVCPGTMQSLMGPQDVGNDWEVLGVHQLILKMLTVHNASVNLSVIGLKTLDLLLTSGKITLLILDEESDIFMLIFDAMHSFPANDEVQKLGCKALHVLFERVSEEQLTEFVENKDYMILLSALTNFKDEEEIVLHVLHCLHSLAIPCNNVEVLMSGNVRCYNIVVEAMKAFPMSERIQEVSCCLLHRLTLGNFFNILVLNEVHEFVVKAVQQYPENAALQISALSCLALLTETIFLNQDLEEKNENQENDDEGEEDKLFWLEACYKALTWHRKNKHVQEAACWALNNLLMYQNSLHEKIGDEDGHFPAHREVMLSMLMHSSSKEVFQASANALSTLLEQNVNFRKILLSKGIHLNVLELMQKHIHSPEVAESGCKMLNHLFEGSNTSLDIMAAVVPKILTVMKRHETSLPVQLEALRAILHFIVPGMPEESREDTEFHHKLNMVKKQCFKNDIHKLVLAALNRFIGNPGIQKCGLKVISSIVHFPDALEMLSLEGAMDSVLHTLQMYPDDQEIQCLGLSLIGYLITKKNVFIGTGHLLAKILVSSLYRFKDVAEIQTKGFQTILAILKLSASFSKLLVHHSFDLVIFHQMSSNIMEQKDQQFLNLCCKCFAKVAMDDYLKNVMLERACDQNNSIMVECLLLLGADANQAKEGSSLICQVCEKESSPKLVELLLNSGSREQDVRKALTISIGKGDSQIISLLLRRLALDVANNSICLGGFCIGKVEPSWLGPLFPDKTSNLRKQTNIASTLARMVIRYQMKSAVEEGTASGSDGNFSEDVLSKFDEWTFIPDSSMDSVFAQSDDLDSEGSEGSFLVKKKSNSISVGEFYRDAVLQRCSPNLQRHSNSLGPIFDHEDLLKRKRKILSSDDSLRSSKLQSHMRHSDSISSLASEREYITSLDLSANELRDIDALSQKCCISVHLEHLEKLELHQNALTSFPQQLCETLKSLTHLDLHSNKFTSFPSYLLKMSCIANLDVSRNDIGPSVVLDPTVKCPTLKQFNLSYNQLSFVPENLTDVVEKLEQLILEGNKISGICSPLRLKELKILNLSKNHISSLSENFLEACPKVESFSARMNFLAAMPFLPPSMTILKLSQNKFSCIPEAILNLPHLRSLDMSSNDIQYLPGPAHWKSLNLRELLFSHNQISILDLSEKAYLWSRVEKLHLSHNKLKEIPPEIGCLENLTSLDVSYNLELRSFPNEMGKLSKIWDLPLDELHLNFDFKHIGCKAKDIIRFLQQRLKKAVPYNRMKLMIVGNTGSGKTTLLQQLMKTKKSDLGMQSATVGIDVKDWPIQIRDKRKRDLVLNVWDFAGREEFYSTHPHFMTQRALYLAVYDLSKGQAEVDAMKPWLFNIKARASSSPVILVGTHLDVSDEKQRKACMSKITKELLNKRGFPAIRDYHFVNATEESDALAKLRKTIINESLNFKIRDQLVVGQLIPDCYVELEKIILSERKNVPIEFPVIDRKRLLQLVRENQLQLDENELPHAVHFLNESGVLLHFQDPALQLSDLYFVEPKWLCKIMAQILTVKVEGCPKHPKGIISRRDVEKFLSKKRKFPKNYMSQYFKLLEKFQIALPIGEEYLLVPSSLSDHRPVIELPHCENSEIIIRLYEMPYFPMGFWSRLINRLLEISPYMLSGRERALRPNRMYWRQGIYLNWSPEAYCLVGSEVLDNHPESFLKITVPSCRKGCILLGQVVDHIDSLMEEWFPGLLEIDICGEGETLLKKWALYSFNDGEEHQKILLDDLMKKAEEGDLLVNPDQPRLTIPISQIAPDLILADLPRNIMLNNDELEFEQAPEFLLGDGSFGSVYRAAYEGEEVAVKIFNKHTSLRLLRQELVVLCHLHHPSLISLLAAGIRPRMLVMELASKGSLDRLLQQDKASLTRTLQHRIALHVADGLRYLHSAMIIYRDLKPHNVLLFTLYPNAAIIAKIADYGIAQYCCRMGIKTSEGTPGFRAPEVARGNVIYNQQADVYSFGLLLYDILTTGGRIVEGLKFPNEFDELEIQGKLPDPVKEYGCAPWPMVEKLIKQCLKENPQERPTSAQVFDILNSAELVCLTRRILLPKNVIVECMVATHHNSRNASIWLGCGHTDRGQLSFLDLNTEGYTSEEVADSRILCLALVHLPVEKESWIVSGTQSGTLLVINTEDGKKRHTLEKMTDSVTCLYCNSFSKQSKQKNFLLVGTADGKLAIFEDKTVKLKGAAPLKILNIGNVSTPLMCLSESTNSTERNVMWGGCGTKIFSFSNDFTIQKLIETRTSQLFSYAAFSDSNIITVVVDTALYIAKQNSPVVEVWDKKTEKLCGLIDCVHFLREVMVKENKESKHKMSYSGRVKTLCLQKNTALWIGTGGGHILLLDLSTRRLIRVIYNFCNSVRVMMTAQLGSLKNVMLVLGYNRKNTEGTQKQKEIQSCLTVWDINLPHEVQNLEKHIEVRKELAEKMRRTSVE
SMILES,IC50 [1],IC50 [2]
"CCn1cc(Cl)c2cnc(Nc3cn(C4CCN(C(=O)C(C)C)CC4)nc3Cl)nc21 [Compound 26, 1-(4-(3-chloro-4-(5-chloro-7-ethyl-7H-pyrrolo[2,3-d]pyrimidin-2-ylamino)-1H-pyrazol-1-yl)piperidin-1-yl)-2-methylpropane-1-one]",10 to 100 nM,–
"CCn1nc(Cl)c2cnc(Nc3cnn(C4CCN(S(C)(=O)=O)CC4)c3Cl)nc21 [Compound 62, 3-chloro-N-(5-chloro-1-(1-(methylsulfonyl)piperidin-4-yl)-1H-pyrazol-4-yl)-1-ethyl-1H-pyrazolo[3,4-d]pyrimidin-6-amine]",10 to 100 nM,–
"COCCn1cc(Nc2ncc3c(Cl)cn(C)c3n2)c(C(F)(F)F)n1 [Compound 10, 5-chloro-N-(1-(2-methoxyethyl)-3-(trifluoromethyl)-1H-pyrazol-4-yl)-7-methyl-7H-pyrrolo[2,3-d]pyrimidin-2-amine]",100 to 1000 nM,–
"CC(C)n1cc(Nc2ncc3c(Cl)cn(C)c3n2)c(Cl)n1 [Compound 3, 5-chloro-N-(3-chloro-1-isopropyl-1H-pyrazol-4-yl)-7-methyl-7H-pyrrolo[2,3-d]pyrimidin-2-amine]",10 to 100 nM,–
"CS(=O)(=O)N1CCC(n2cc(Nc3ncc4c(Cl)nn(CC(F)(F)F)c4n3)c(Cl)n2)CC1 [Compound 49, 3-chloro-N-(3-chloro-1-(1-(methylsulfonyl)piperidin-4-yl)-1H-pyrazol-4-yl)-1-(2,2,2-trifluoroethyl)-1H-pyrazolo[3,4-d]pyrimidin-6-amine]",10 to 100 nM,–
"CCn1cc(Cl)c2cnc(Nc3cn(CC4CC4)nc3Cl)nc21 [Compound 13, 5-chloro-N-(3-chloro-1-(cyclopropylmethyl)-1H-pyrazol-4-yl)-7-ethyl-7H-pyrrolo[2,3-d]pyrimidin-2-amine]",10 to 100 nM,–
"CCn1nc(Cl)c2cnc(Nc3cn(C4CN(C(=O)C5CC5)C4)nc3Cl)nc21 [Compound 60, (3-(3-chloro-4-(3-chloro-1-ethyl-1H-pyrazolo[3,4-d]pyrimidin-6-ylamino)-1H-pyrazol-1-yl)azetidin-1-yl)(cyclopropyl)methanone]",10 to 100 nM,–
"CCCCn1cc(Nc2ncc3c(Cl)cn(C)c3n2)c(C(F)(F)F)n1 [Compound 11, N-(1-butyl-3-(trifluoromethyl)-1H-pyrazol-4-yl)-5-chloro-7-methyl-7H-pyrrolo[2,3-d]pyrimidin-2-amine]",1000 to 10000 nM,–
"Cn1cc(Cl)c2cnc(Nc3cnn(C4CCN(C5COC5)CC4)c3Cl)nc21 [Compound 27, 5-chloro-N-(5-chloro-1-(1-(oxetan-3-yl)piperidin-4-yl)-1H-pyrazol-4-yl)-7-methyl-7H-pyrrolo[2,3-d]pyrimidin-2-amine]",10 to 100 nM,–
"CC(C)n1cc(Nc2ncc3c(Cl)cn(C)c3n2)c(C(F)(F)F)n1 [Compound 9, 5-chloro-N-(1-isopropyl-3-(trifluoromethyl)-1H-pyrazol-4-yl)-7-methyl-7H-pyrrolo[2,3-d]pyrimidin-2-amine]",100 to 1000 nM,–
"CCn1nc(Cl)c2cnc(Nc3cnn(C4CN(C5COC5)C4)c3Cl)nc21 [Compound 61, 3-chloro-N-(5-chloro-1-(1-(oxetan-3-yl)azetidin-3-yl)-1H-pyrazol-4-yl)-1-ethyl-1H-pyrazolo[3,4-d]pyrimidin-6-amine]",10 to 100 nM,–
"Clc1cn(C2CC2)c2nc(Nc3cnn(C4CCN(C5COC5)CC4)c3Cl)ncc12 [Compound 29, 5-chloro-N-(5-chloro-1-(1-(oxetan-3-yl)piperidin-4-yl)-1H-pyrazol-4-yl)-7-cyclopropyl-7H-pyrrolo[2,3-d]pyrimidin-2-amine]",10 to 100 nM,–
"Cn1ncc(Nc2ncc3c(Cl)cn(C)c3n2)c1Cl [Compound 5, 5-chloro-N-(5-chloro-1-methyl-1H-pyrazol-4-yl)-7-methyl-7H-pyrrolo[2,3-d]pyrimidin-2-amine]",10 to 100 nM,–
"CCn1cc(Cl)c2cnc(Nc3cn(C4CN(C(=O)C5CC5)C4)nc3Cl)nc21 [Compound 41, (3-(3-chloro-4-(5-chloro-7-ethyl-7H-pyrrolo[2,3-d]pyrimidin-2-ylamino)-1H-pyrazol-1-yl)azetidin-1-yl)(cyclopropyl)methanone]",10 to 100 nM,–
"CCn1cc(Cl)c2cnc(Nc3cn(C4CCN(C(=O)C5CC5)CC4)nc3Cl)nc21 [Compound 24, (4-(3-chloro-4-(5-chloro-7-ethyl-7H-pyrrolo[2,3-d]pyrimidin-2-ylamino)-1H-pyrazol-1-yl)piperidin-1-yl)(cyclopropyl)methanone]",10 to 100 nM,–
"CC(C)n1cc(Nc2ncc3c(Cl)cn(C(C)C)c3n2)c(Cl)n1 [Compound 7, 5-chloro-N-(3-chloro-1-isopropyl-1H-pyrazol-4-yl)-7-isopropyl-7H-pyrrolo[2,3-d]pyrimidin-2-amine]",10 to 100 nM,–
"Clc1nn(C2CC2)cc1Nc1ncc2c(Cl)cn(C3CC3)c2n1 [Compound 15, 5-chloro-N-(3-chloro-1-cyclopropyl-1H-pyrazol-4-yl)-7-cyclopropyl-7H-pyrrolo[2,3-d]pyrimidin-2-amine]",10 to 100 nM,–
"CCn1cc(Cl)c2cnc(Nc3cnn(C4COC4)c3Cl)nc21 [Compound 16, 5-chloro-N-(5-chloro-1-(oxetan-3-yl)-1H-pyrazol-4-yl)-7-ethyl-7H-pyrrolo[2,3-d]pyrimidin-2-amine]",10 to 100 nM,–
"CCn1nc(Cl)c2cnc(Nc3c(Cl)nn(C4CCN(C(=O)C5CC5)CC4)c3C)nc21 [Compound 56, (4-(3-chloro-4-(3-chloro-1-ethyl-1H-pyrazolo[3,4-d]pyrimidin-6-ylamino)-5-methyl-1H-pyrazol-1-yl)piperidin-1-yl)(cyclopropyl)methanone]",100 to 1000 nM,–
"CCn1cc(Cl)c2cnc(Nc3cn([C@H]4CCN(C(=O)C5CCCC5)C4)nc3Cl)nc21 [Compound 39, (S)-(3-(3-chloro-4-(5-chloro-7-ethyl-7H-pyrrolo[2,3-d]pyrimidin-2-ylamino)-1H-pyrazol-1-yl)pyrrolidin-1-yl)(cyclopentyl)methanone]",10 to 100 nM,–

# Other lines, results leading:
IC50 [1],IC50 [2],SMILES
< 10 nM,6.07 nM,"CCn1cc(Cl)c2cnc(Nc3cn(C4CCN(C(=O)C(C)(C)C)CC4)nc3Cl)nc21 [Compound 33, 1-(4-(3-chloro-4-(5-chloro-7-ethyl-7H-pyrrolo[2,3-d]pyrimidin-2-ylamino)-1H-pyrazol-1-yl)piperidin-1-yl)-2,2-dimethylpropane-1-one]"
< 10 nM,2.02 nM,"CS(=O)(=O)N1CCC(n2cc(Nc3ncc4c(Cl)cn(C5CC5)c4n3)c(Cl)n2)CC1 [Compound 30, 5-chloro-N-(3-chloro-1-(1-(methylsulfonyl)piperidin-4-yl)-1H-pyrazol-4-yl)-7-cyclopropyl-7H-pyrrolo[2,3-d]pyrimidin-2-amine]"
< 10 nM,6.66 nM,"CCn1cc(Cl)c2cnc(Nc3cn(C4CCN(S(=O)(=O)C5CC5)CC4)nc3Cl)nc21 [Compound 35, 5-chloro-N-(3-chloro-1-(1-(cyclopropylsulfonyl)piperidin-4-yl)-1H-pyrazol-4-yl)-7-ethyl-7H-pyrrolo[2,3-d]pyrimidin-2-amine]"
< 10 nM,4.49 nM,"CCn1nc(Cl)c2cnc(Nc3cn(C4CCN(S(C)(=O)=O)CC4)nc3Cl)nc21 [Compound 55, 3-chloro-N-(3-chloro-1-(1-(methylsulfonyl)piperidin-4-yl)-1H-pyrazol-4-yl)-1-ethyl-1H-pyrazolo[3,4-d]pyrimidin-6-amine]"
< 10 nM,6.48 nM,"CCn1nc(Cl)c2cnc(Nc3cn(C4CCN(S(=O)(=O)C5CC5)CC4)nc3Cl)nc21 [Compound 47, 3-chloro-N-(3-chloro-1-(1-(cyclopropylsulfonyl)piperidin-4-yl)-1H-pyrazol-4-yl)-1-ethyl-1H-pyrazolo[3,4-d]pyrimidin-6-amine]"
< 10 nM,5.6 nM,"CCn1nc(Cl)c2cnc(Nc3cn(C4CCCN(C(=O)C5CC5)CC4)nc3Cl)nc21 (stereo not shown) [Compound 52, (4-(3-chloro-4-(3-chloro-1-ethyl-1H-pyrazolo[3,4-d]pyrimidin-6-ylamino)-1H-pyrazol-1-yl)azepan-1-yl)(cyclopropyl)methanone]"
< 10 nM,–,"CCn1cc(Cl)c2cnc(Nc3cn(C4CCCN(C(=O)C5CC5)CC4)nc3Cl)nc21 (stereo not shown) [Compound 43, (4-(3-chloro-4-(5-chloro-7-ethyl-7H-pyrrolo[2,3-d]pyrimidin-2-ylamino)-1H-pyrazol-1-yl)azepan-1-yl)(cyclopropyl)methanone]"
< 10 nM,7.91 nM,"CS(=O)(=O)N1CCC(n2cc(Nc3ncc4c(Cl)nn(C5CC5)c4n3)c(Cl)n2)CC1 [Compound 46, 3-chloro-N-(3-chloro-1-(1-(methylsulfonyl)piperidin-4-yl)-1H-pyrazol-4-yl)-1-cyclopropyl-1H-pyrazolo[3,4-d]pyrimidin-6-amine]"
< 10 nM,6.67 nM,"CCn1cc(Cl)c2cnc(Nc3cn(C4CCN(S(C)(=O)=O)CC4)nc3Cl)nc21 [Compound 25, 5-chloro-N-(3-chloro-1-(1-(methylsulfonyl)piperidin-4-yl)-1H-pyrazol-4-yl)-7-ethyl-7H-pyrrolo[2,3-d]pyrimidin-2-amine]"

# Source: patent publication US11370796B2, “Substituted pyrazoles as LRRK2 inhibitors” (OSCOTEC INC., priority 2017, dated 2022)
